Our source for the Ki values is patent US4968669A, “Parathyroid hormone antagonists” (Merck & Co., Inc., priority 1989, dated 1990).

Structures are written as SMILES.

In test [1] the target is T1, PTH receptor in bovine renal cortical plasma membranes (Bos taurus, UniProt Q1LZF7).
T1 construct: from tissue; host or cells: bovine renal cortex, plasma membranes
T1 sequence (Q1LZF7 29-589): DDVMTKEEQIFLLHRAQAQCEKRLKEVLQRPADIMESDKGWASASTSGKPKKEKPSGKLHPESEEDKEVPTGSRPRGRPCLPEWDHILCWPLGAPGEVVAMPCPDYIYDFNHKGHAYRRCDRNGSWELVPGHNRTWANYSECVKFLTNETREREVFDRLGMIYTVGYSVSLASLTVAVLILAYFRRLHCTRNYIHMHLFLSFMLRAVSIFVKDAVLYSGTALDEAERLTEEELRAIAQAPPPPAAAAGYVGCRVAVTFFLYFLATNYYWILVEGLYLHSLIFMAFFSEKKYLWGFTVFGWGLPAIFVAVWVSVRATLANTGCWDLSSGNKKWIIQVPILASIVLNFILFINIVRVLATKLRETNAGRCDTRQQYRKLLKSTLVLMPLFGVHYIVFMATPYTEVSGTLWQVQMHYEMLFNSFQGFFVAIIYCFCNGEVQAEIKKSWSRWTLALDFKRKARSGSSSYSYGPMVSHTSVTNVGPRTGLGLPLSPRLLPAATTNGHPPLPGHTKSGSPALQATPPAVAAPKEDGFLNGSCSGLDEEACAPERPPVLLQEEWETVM
The test can be described thus: PTH binding assay, bovine renal cortical plasma membranes, radioligand [Nle8,18,125I-Tyr34]bPTH(1-34)NH2. As to conditions: 30 min at 21° C. The protocol:
Bovine renal cortical plasma membranes were incubated with radioligand (25,000 cpm) in the absence or presence of PTH analogues in a Tris containing buffer (250 μl) for 30 min. at 21° C. Once equilibrium was reached, bound and free radioligand were separated by centrifugation.

Test [2] concerns the target T2, I^125 -labeled PTH binding to rat osteosarcoma cell line ROS 17/2.8 (Rattus norvegicus, UniProt P25961).
T2 construct: bone-derived rat osteosarcoma cell line ROS 17/2.8; endogenous in cells; host or cells: ROS 17/2.8 rat osteosarcoma cells
T2 sequence (P25961 27-591): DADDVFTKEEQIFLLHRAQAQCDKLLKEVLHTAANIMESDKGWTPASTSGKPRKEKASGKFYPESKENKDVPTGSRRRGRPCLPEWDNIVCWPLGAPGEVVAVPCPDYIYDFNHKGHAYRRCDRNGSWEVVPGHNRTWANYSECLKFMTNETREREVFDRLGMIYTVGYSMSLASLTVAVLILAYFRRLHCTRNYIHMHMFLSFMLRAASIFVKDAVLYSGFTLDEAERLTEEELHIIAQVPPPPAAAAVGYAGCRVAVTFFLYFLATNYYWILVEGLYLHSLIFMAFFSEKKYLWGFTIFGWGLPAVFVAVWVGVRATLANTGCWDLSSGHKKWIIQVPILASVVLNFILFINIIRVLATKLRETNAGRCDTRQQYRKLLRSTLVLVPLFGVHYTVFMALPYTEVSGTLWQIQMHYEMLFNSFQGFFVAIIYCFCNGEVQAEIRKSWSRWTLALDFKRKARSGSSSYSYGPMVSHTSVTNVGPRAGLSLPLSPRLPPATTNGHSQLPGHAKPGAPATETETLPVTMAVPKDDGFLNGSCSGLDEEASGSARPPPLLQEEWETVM
The test can be described thus: PTH binding assay, ROS 17/2.8 cells.

Test [3] concerns the target T3, I^125 -labeled PTH binding to canine renal cortical membranes (Canis lupus familiaris, UniProt Q9TU31).
T3 construct: from tissue; host or cells: canine renal cortex, membranes
T3 sequence (Q9TU31 29-595): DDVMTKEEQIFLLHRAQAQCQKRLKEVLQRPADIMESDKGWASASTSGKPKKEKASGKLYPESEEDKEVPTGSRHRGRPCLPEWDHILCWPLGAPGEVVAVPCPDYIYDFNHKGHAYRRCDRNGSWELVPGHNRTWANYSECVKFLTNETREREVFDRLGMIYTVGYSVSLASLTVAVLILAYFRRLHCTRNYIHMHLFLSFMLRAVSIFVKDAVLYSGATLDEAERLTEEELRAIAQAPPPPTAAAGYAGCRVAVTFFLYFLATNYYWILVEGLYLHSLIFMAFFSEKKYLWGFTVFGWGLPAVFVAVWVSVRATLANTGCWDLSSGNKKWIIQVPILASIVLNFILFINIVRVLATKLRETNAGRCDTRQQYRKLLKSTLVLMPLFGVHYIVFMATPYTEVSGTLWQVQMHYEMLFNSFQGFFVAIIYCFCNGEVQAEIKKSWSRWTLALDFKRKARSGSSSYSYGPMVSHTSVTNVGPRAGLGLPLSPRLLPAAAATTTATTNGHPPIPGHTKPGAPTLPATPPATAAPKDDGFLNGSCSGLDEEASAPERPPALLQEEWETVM
The test can be described thus: PTH binding assay (canine kidney).

Test [4] concerns the target T4, I^125 -labeled PTH binding to human osteosarcoma cells (BIO) (Homo sapiens, UniProt Q03431).
T4 construct: endogenous in cells; host or cells: human osteosarcoma cells (BIO)
T4 sequence (Q03431 27-593): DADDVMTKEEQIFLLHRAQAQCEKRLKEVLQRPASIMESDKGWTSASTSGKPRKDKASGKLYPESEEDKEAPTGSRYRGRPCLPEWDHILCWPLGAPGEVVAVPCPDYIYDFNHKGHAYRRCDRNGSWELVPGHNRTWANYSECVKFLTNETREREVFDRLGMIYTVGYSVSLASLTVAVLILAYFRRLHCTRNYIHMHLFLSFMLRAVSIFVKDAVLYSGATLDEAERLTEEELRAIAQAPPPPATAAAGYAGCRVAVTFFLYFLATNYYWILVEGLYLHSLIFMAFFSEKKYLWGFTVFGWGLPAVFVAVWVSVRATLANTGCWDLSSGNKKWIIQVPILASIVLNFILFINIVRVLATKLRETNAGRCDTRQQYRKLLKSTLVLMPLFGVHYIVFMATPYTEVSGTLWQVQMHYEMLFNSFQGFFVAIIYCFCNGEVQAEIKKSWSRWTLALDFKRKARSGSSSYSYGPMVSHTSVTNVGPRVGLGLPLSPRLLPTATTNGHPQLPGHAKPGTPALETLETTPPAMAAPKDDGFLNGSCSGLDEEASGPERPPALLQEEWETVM
Description: PTH binding assay (human osteosarcoma cells). The source says:
The results are as follows:

What is called Ki is the dissociation constant of the complex between target and ligand, obtained from inhibition or displacement. Low readings indicate higher affinity, high ones lower affinity. In the case of `CCCC[C@H](NC(=O)[C@H](CO)NC(=O)[C@H](CO)NC(=O)[C@H](CC(C)C)NC(=O)[C@H](Cc1c[nH]cn1)NC(=O)[C@H](CCCCN)NC(=O)CNC(=O)[C@H](CC(C)C)NC(=O)[C@H](CC(N)=O)NC(=O)[C@H](Cc1c[nH]cn1)NC(=O)[C@H](CCCC)NC(=O)[C@@H](N)Cc1ccccc1)C(=O)N[C@@H](CCC(=O)O)C(=O)N[C@@H](CCCNC(=N)N)C(=O)N[C@H](C(=O)N[C@@H](CCC(=O)O)C(=O)N[C@@H](Cc1c[nH]c2ccccc12)C(=O)N[C@@H](CC(C)C)C(=O)N[C@@H](CCCNC(=N)N)C(=O)N[C@@H](CCCCN)C(=O)N[C@@H](CCCCN)C(=O)N[C@@H](CC(C)C)C(=O)N[C@@H](CCC(N)=O)C(=O)N[C@@H](CC(=O)O)C(=O)N[C@H](C(=O)N[C@@H](Cc1c[nH]cn1)C(=O)N[C@@H](CC(N)=O)C(=O)N[C@@H](Cc1ccc(O)cc1)C(N)=O)C(C)C)C(C)C` [[Nle^8,18,Tyr^34]bPTH(7-34)NH2], the results for the Ki in test [1] and in test [2] were 145 ± 13 nM and 964 ± 170 nM, respectively.

On to `CSCC[C@H](NC(=O)[C@H](CO)NC(=O)[C@H](CO)NC(=O)[C@H](CC(C)C)NC(=O)[C@H](Cc1c[nH]cn1)NC(=O)[C@H](CCCCN)NC(=O)CNC(=O)[C@H](CC(C)C)NC(=O)[C@H](CC(N)=O)NC(=O)[C@H](Cc1c[nH]cn1)NC(=O)[C@H](CCSC)NC(=O)[C@@H](N)Cc1ccccc1)C(=O)N[C@@H](CCC(=O)O)C(=O)N[C@@H](CCCNC(=N)N)C(=O)N[C@H](C(=O)N[C@@H](CCC(=O)O)C(=O)N[C@@H](Cc1c[nH]c2ccccc12)C(=O)N[C@@H](CC(C)C)C(=O)N[C@@H](CCCNC(=N)N)C(=O)N[C@@H](CCCCN)C(=O)N[C@@H](CCCCN)C(=O)N[C@@H](CC(C)C)C(=O)N[C@@H](CCC(N)=O)C(=O)N[C@@H](CC(=O)O)C(=O)N[C@H](C(=O)N[C@@H](Cc1c[nH]cn1)C(=O)N[C@@H](CC(N)=O)C(=O)N[C@@H](Cc1ccc(O)cc1)C(N)=O)C(C)C)C(C)C` [[Tyr^34]bPTH(7-34)NH2], for which the Ki is 76 ± 9 nM in test [1], 700 ± 90 nM in test [2], 45.8 ± 11.3 nM in test [3] and 5.5 ± 1.6 nM in test [4].
